What was measured:
[1] = system: Ergosterol Biosynthesis, Candida albicans_C286; assay: Inhibition of ergosterol biosynthesis; type: cell-based, Candida albicans; settings: RPMI-1640, 30° C., 48 h, read-out: IC50 Values for Inhabitation of Ergosterol Biosynthesis
Procedure: (§1) Compounds of the invention were tested for their ability to inhibit ergosterol biosynthesis. Testing was performed in 96-well round-bottom microtitration plates. Cell suspensions were prepared in RPMI-1640 medium and were adjusted to give a final inoculum concentration of 0.5×10^3 to 2.5×10^3 cells/ml. The plates were incubated incubated at 30° C. for 48 h before growth was assessed. The MIC of each compounds was defined as the lowest concentration at which there was 80% inhibition of growth compared with that in a drug-free control [O. N. Breivik and J. L. Owades, Agric. Food Chem., 5 (1957) 360-363; T. F. Patterson, S. G. Revankar, W. R. Kirkpatrick, O. Dib, A. W. Fothergill, S. W. Redding, D. A. Sutton and M. G. Rinaldi, J. Clin. Microbiol., 34 (1996) 1794-1797]. Ergosterol content was calculated as a percentage of the wet weight of the cell [National Committee for Clinical Laboratory Standards. 1997. Reference method for broth dilution antifungal susceptibility testing of yeasts, Approved standard. Document M27-A, National Committee for Clinical Laboratory Standards, Wayne, Pa.].

[2] = system: Ergosterol Biosynthesis, Aspergillus fumigatus_ND 158; assay: Inhibition of ergosterol biosynthesis; type: cell-based, Aspergillus fumigatus; settings: RPMI-1640, 30° C., 48 h, read-out: IC50 Values for Inhabitation of Ergosterol Biosynthesis
Procedure: as §1

Cryptococcus neoformans = assay: In vitro activity test, agar dilution method (GMMIC); type: cell-based; settings: 10 organisms, Kimmig's agar, 25° C.
Procedure: (§2) Organisms listed in Table 4 were tested according to an agar dilution method: Suspensions of each microorganism were prepared to contain […] colony forming units (cfu)/mL. All drugs were dissolved in a few drops of DMSO then diluted with ethanol—water (1/1, v/v) to make a stock solution of 500 μg/mL. The agar dilution method was performed in a medium of Kimmig's agar (K. A., Merck) −0.5% glycerol [R. A. Fromtling, G. K. Abruzzo and A. Ruiz, Mycopathologia, 106 (1989) 163-166]. Plates of Kimmig's agar containing serial dilutions (25 to 0.01 μg/mL) of the drugs were inoculated with 10 μL of the fungal inocula and incubated at 25° C. […] for yeasts and up to 5 days for filamentous fungi. Following incubation, GMMICs (geometric mean minimum inhibitory concentration μg/mL) were determined. In the table POCZ indicates posaconazole, ITRZ indicates itraconazole, and FLUZ indicates fluconazole. [Patterson, T. F., S. G. Revankar, W. R. Kirkpatrick, O. Dib, A. W. Fothergill, S. W. Redding, D. A. Sutton, and M. G. Rinaldi, J. Clin. Microbiol. 34 (1996) 1794-1797].

Trichophyton rubrum = assay: as above; type: cell-based; settings: 17 organisms, Kimmig's agar, 25° C.
Procedure: as §2

Aspergillus Flavus = assay: as above; type: cell-based; settings: 9 organisms, Kimmig's agar, 25° C.
Procedure: as §2

Candida Krusei = assay: as above; type: cell-based; settings: 22 organisms, Kimmig's agar, 25° C.
Procedure: as §2

Microsporum canis = assay: as above; type: cell-based; settings: 6 organisms, Kimmig's agar, 25° C.
Procedure: as §2

Row | Compound | IC50 [1] | IC50 [2] | other results
1 | CC(O)C(C)n1ncn(-c2ccc(N3CCN(c4ccc(SCC5CCC(Cn6cncn6)(c6ccc(F)cc6F)O5)cc4)CC3)cc2)c1=O (centres unmarked) [I-Re (T), 4-(4-(4-(4-((5-((1H-1,2,4-triazol-1-yl)methyl)-5-(2,4-difluorophenyl)tetrahydrofuran-2-yl)methylthio)phenyl)piperazin-1-yl)phenyl)-1-(3-hydroxybutan-2-yl)-1H-1,2,4-triazol-5(4H)-one] |  | 0.0096 µM | 
2 | C=CC(C)n1ncn(-c2ccc(N3CCN(c4ccc(SCC5OCC(Cn6cncn6)(c6ccc(F)cc6F)O5)cc4)CC3)cc2)c1=O (centres unmarked) [I-Rg (D), 4-(4-(4-(4-((4-((1H-1,2,4-triazol-1-yl)methyl)-4-(2,4-difluorophenyl)-1,3-dioxolan-2-yl)methylthio)phenyl)piperazin-1-yl)phenyl)-1-(but-3-en-2-yl)-1H-1,2,4-triazol-5(4H)-one] | 0.0338 µM | 0.0102 µM | 
3 | CCC(C(C)O)n1ncn(-c2ccc(N3CCN(c4ccc(SCC5OCC(Cn6cncn6)(c6ccc(F)cc6F)O5)cc4)CC3)cc2)c1=O (centres unmarked) [I-Rf (D), 4-(4-(4-(4-((4-((1H-1,2,4-triazol-1-yl)methyl)-4-(2,4-difluorophenyl)-1,3-dioxolan-2-yl)methylthio)phenyl)piperazin-1-yl)phenyl)-1-(2-hydroxypentan-3-yl)-1H-1,2,4-triazol-5(4H)-one] | 0.0334 µM | 0.0099 µM | 
4 | CCC(C(C)O)n1ncn(-c2ccc(N3CCN(c4ccc(CSC5CCC(Cn6cncn6)(c6ccc(F)cc6F)O5)cc4)CC3)cc2)c1=O (centres unmarked) [II-Rf (T), 4-(4-(4-(4-((5-((1H-1,2,4-triazol-1-yl)methyl)-5-(2,4-difluorophenyl)tetrahydrofuran-2-ylhio)methyl)phenyl)piperazin-1-yl)phenyl)-1-(2-hydroxypentan-3-yl)-1H-1,2,4-triazol-5(4H)-one] | 0.0329 µM | 0.0093 µM | 
5 | CCC(C)n1ncn(-c2ccc(N3CCN(c4ccc(OCC5COC(Cn6cncn6)(c6ccc(Cl)cc6Cl)O5)cc4)CC3)cc2)c1=O (centres unmarked) [ITRZ, itraconazole] |  |  | GMMICS (geometric mean minimum inhibitory concentration) (Cryptococcus neoformans): 0.49 µg/mL; GMMICS (geometric mean minimum inhibitory concentration) (Trichophyton rubrum): 3.1 µg/mL; GMMICS (geometric mean minimum inhibitory concentration) (Aspergillus Flavus): 0.35 µg/mL; GMMICS (geometric mean minimum inhibitory concentration) (Candida Krusei): 0.60 µg/mL; GMMICS (geometric mean minimum inhibitory concentration) (Microsporum canis): 1.2 µg/mL
6 | CC[C@@H]([C@H](C)O)n1ncn(-c2ccc(N3CCN(c4ccc(OC[C@@H]5CO[C@@](Cn6cncn6)(c6ccc(F)cc6F)C5)cc4)CC3)cc2)c1=O [POCZ, posaconazole, reference compound] |  | 0.0118 µM | 

Continued, in another order:

Row | IC50 [1] | IC50 [2] | Compound | other results
7 | 0.0343 µM | 0.0103 µM | CCC(C)n1ncn(-c2ccc(N3CCN(c4ccc(CSC5OCC(Cn6cncn6)(c6ccc(F)cc6F)O5)cc4)CC3)cc2)c1=O (centres unmarked) [II-Ra (D), 4-(4-(4-(4-((4-((1H-1,2,4-triazol-1-yl)methyl)-4-(2,4-difluorophenyl)-1,3-dioxolan-2-ylthio)methyl)phenyl)piperazin-1-yl)phenyl)-1-sec-butyl-1H-1,2,4-triazol-5(4H)-one] | 
8 | 0.0319 µM |  | CC(O)C(C)n1ncn(-c2ccc(N3CCN(c4ccc(SCC5OCC(Cn6cncn6)(c6ccc(F)cc6F)O5)cc4)CC3)cc2)c1=O (centres unmarked) [I-Re (D), 4-(4-(4-(4-((4-((1H-1,2,4-triazol-1-yl)methyl)-4-(2,4-difluorophenyl)-1,3-dioxolan-2-yl)methylthio)phenyl)piperazin-1-yl)phenyl)-1-(3-hydroxybutan-2-yl)-1H-1,2,4-triazol-5(4H)-one] | 
9 | 0.0321 µM | 0.0095 µM | CCC(C(C)O)n1ncn(-c2ccc(N3CCN(c4ccc(SCC5CCC(Cn6cncn6)(c6ccc(F)cc6F)O5)cc4)CC3)cc2)c1=O (centres unmarked) [I-Rf (T), 4-(4-(4-(4-((5-((1H-1,2,4-triazol-1-yl)methyl)-5-(2,4-difluorophenyl)tetrahydrofuran-2-yl)methylthio)phenyl)piperazin-1-yl)phenyl)-1-(2-hydroxypentan-3-yl)-1H-1,2,4-triazol-5(4H)-one] | 
10 | 0.0311 µM | 0.0098 µM | CCC(C(C)O)n1ncn(-c2ccc(N3CCN(c4ccc(CSC5OCC(Cn6cncn6)(c6ccc(F)cc6F)O5)cc4)CC3)cc2)c1=O (centres unmarked) [II-Rf (D), 4-(4-(4-(4-((4-((1H-1,2,4-triazol-1-yl)methyl)-4-(2,4-difluorophenyl)-1,3-dioxolan-2-ylthio)methyl)phenyl)piperazin-1-yl)phenyl)-1-(2-hydroxypentan-3-yl)-1H-1,2,4-triazol-5(4H)-one] | 
